Reference: patent publication US9738684B2, “N-terminally modified linear and branched polyamine conjugated peptidomimetics as antimicrobials agents” (COUNCIL OF SCIENTIFIC & INDUSTRIAL RESEARCH, priority 2015, dated 2017)
Converted amounts (≈) assume the structure as drawn.

Tests used:
MRSA = experiment: MIC in presence of 25% v/v human serum; format: cell-based, Staphylococcus aureus
Experimental: Following bacterial strains were used in this study: S. aureus (ATCC 29213), methicillin resistant S. aureus (ATCC 33591), Staphylococcus epidermidis (ATCC 12228), methicillin resistant Staphylococcus epidermidis(ATCC 51625), Enterococcus faecalis (ATCC 7080), Escherichia coli (ATCC 11775), and Acinetobacter baumannii (ATCC 19606). Antibacterial activity was evaluated using a modified serial broth dilution method in accordance with Clinical Laboratory Standard Institute guidelines [Methods for dilution antimicrobial susceptibility tests for bacteria that grow aerobically-7th ed. Approved standard M7-A7. Clinical and Laboratory Standards Institute, Wayne, Pa., Biochim. Biophys. Acta 1798:1864-1875, 2010.]. Briefly, the inoculums were prepared from mid-log phase bacterial cultures. Peptidomimetics were incubated with bacterial suspension in Muller Hinton broth media (10^5 CFU/mL) in 96 well microtitre plate. The plates were incubated overnight with agitation (200 rpm) at 37° C. After 18 h, absorbance was measured at 630 nm. Cultures without test peptidomimetics were used as positive control. Un-inoculated Mueller Hinton Broth (MHB) was used as negative control. Tests were carried out in duplicate on at least three different days. […] Further, antibacterial activity of active peptidomimetics 1c and 1d were also evaluated against MRSA in presence of 25% v/v human serum as well as bovine serum.

[1] = system: Staphylococcus epidermidis (ATCC 12228); experiment: MIC, serial broth dilution; format: cell-based; conditions: MHB, 18 h, 37° C.
[2] = system: methicillin resistant Staphylococcus epidermidis (ATCC 51625); experiment: MIC, serial broth dilution; format: cell-based; conditions: MHB, 18 h, 37° C.
[3] = system: Acinetobacter baumannii (ATCC 19606); experiment: MIC, serial broth dilution; format: cell-based; conditions: MHB, 18 h, 37° C.
[4] = system: Enterococcus faecalis (ATCC 7080); experiment: MIC, serial broth dilution; format: cell-based; conditions: MHB, 18 h, 37° C.
[5] = system: MRSA (ATCC 33591) biofilm; experiment: 24 h preformed mature biofilm (alamar blue, crystal violet); format: cell-based, Staphylococcus aureus; conditions: 20×MICb: 1c 140 μg/mL, 1d 70 μg/mL, VAN 20 μg/mL
Experimental: To evaluate potential of designed active peptidomimetics against MRSA biofilms a methodology as used previously was employed with minor modifications [Antimicrob. Agents Chemother., 57:2726-2737, 2013]. Briefly, freshly inoculated MRSA (ATCC 33591) was grown in biofilm growth media (TSB supplemented with 0.5% w/v NaCl and 0.25% w/v glucose) overnight. Next day, the culture was diluted in fresh biofilm growth media to 10^5 CFU/mL. 200 μl of diluted culture was dispensed in wells of a 96-well polystyrene plate for biofilm formation. […] Biofilm cultures were re-incubated at 37° C. for 24 h. After removal of medium, the biofilms were further washed twice with sterile NaCl/Pi buffer and assessed for metabolic activity (alamar blue assay) and biomass quantification (Crystal violet assay).

SMILES	increase in MIC in human serum (MRSA) [fold]	MIC S. epidermidis (ATCC 12228) [1] [µg/mL]	MIC MRSE (ATCC 51625) [2] [µg/mL]	MIC A. baumannii (ATCC 19606) [3] [µg/mL]	MIC E. facaelis (ATCC 7080) [4] [µg/mL]	biomass remaining compared to control, 24 h pre-formed biofilm (crystal violet) [5] [%]
NCCCNCCCCNCCCNC(=O)C(Cc1c[nH]c2ccccc12)NC(=O)C(Cc1c[nH]c2ccccc12)NC(=O)Cc1ccc(C(F)(F)F)cc1 (stereo not drawn) [1c]	4	1.7 (≈ 2.23 µM)	0.0035 (≈ 0.0046 µM)	0.0284 (≈ 0.0373 µM)	0.0284 (≈ 0.0373 µM)	24.0±13.4
CCCCCCCCCC(=O)NC(Cc1c[nH]c2ccccc12)C(=O)NC(Cc1c[nH]c2ccccc12)C(=O)NCCCNCCCCNCCCN (stereo not drawn) [1d]	8	1.7 (≈ 2.33 µM)	0.0017 (≈ 0.00233 µM)	0.1136 (≈ 0.156 µM)	0.0035 (≈ 0.0048 µM)	21.4±9.2
